Experimental data as given in patent US11780839B2, “Compounds for treating Huntington's disease” (PTC THERAPEUTICS, INC., priority 2018, dated 2023).

What follows are compounds tested on Endogenous Huntingtin Protein (assay: Endogenous Huntingtin Protein Assay (ELISA-based Meso Scale Discovery electrochemiluminescence)). Conditions: MSD electrochemiluminescence, Table 1.
Type: cell-based
Method in brief: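 Huntingtin was captured overnight at 4 °C on plates coated with 1 μg/mL MW1 (polyQ-expanded) or MAB2166 antibody and BSA-blocked. Detection used a rabbit monoclonal and then a SULFO-TAG goat anti-rabbit antibody (0.25 μg/mL, 1 h each, room temperature). Signal was read by electrochemiluminescence.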

With Oc1cc(-c2cn[nH]c2)ccc1-c1cnc(N2CCC(CNC3CCOCC3)C2)nn1 (stereo not drawn) [Cpd 372, 2-[3-(3-{[(oxan-4-yl)amino]methyl}pyrrolidin-1-yl)-1,2,4-triazin-6-yl]-5-(1H-pyrazol-4-yl)phenol] as the compound, how does the IC50 read?
Its IC50 is at most 100 nM.

CNC1CCN(c2ncc(-c3ccc(-c4nnn(C)n4)cc3O)nn2)C1 (stereo not drawn) [Cpd 320, 2-{3-[3-(methylamino)pyrrolidin-1-yl]-1,2,4-triazin-6-yl}-5-(2-methyl-2H-tetrazol-5-yl)phenol] was tested. Which IC50 did it give?
Its IC50 is 100 to 500 nM.

For CC1(C)CC(Nc2ncc(-c3ccc(-c4cn[nH]c4)cc3O)nn2)C(F)C(C)(C)N1 (stereo not drawn) [Cpd 126, 2-{3-[(3-fluoro-2,2,6,6-tetramethylpiperidin-4-yl)amino]-1,2,4-triazin-6-yl}-5-(1H-pyrazol-4-yl)phenol], which IC50 is on record?
The IC50 was at most 100 nM.

CN(c1ncc(-c2ccc(-c3ccc(Cl)nn3)cc2O)nn1)C1CC(C)(C)NC(C)(C)C1 [Cpd 123, 5-(6-chloropyridazin-3-yl)-2-{3-[methyl(2,2,6,6-tetramethylpiperidin-4-yl)amino]-1,2,4-triazin-6-yl}phenol] was tested. Which IC50 did it give?
The IC50 was at most 100 nM.

For CC1(C)CC(Nc2cnc(-c3ccc(-c4cn[nH]c4)cc3O)nn2)C(F)C(C)(C)N1 (stereo not drawn) [Cpd 423, 2-{6-[(3-fluoro-2,2,6,6-tetramethylpiperidin-4-yl)amino]-1,2,4-triazin-3-yl}-5-(1H-pyrazol-4-yl)phenol], which IC50 is on record?
Its IC50 is at most 100 nM.

With CNC1CCN(c2ncc(-c3ccc(-c4cnn(C)n4)cc3O)nn2)C1 (stereo not drawn) [Cpd 295, 2-{3-[3-(methylamino)pyrrolidin-1-yl]-1,2,4-triazin-6-yl}-5-(2-methyl-2H-1,2,3-triazol-4-yl)phenol] as the compound, how does the IC50 read?
Its IC50 is at most 100 nM.

CC1(C)CC(Nc2ncc(-c3ccc(-c4ccnnc4)cc3O)nn2)CC(C)(C)N1 [Cpd 314, 5-(pyridazin-4-yl)-2-{3-[(2,2,6,6-tetramethylpiperidin-4-yl)amino]-1,2,4-triazin-6-yl}phenol] was tested. Which IC50 did it give?
Its IC50 is at most 100 nM.

With Oc1cc(-c2cn[nH]c2)ccc1-c1cnc(N2CCC(NC3CCCC3)C2)nn1 (stereo not drawn) [Cpd 357, 2-{3-[3-(cyclopentylamino)pyrrolidin-l-yl]-1,2,4-triazin-6-yl}-5-(1H-pyrazol-4-yl)phenol] as the compound, how does the IC50 read?
The IC50 was at most 100 nM.

For CC1(C)C[C@H](Nc2ncc(-c3ccc(-n4cnc(F)c4)cc3O)nn2)[C@H](F)C(C)(C)N1 [Cpd 240, 5-(4-fluoro-1H-imidazol-1-yl)-2-(3-{[(3S,4S)-3-fluoro-2,2,6,6-tetramethylpiperidin-4-yl]amino}-1,2,4-triazin-6-yl)phenol], which IC50 is on record?
Its IC50 is at most 100 nM.

Which IC50 does the source give for CN(c1ncc(-c2ccc(-c3cnn(C)c3)cc2O)nn1)C1CC(C)(C)NC(C)(C)C1 [Cpd 16] here?
The IC50 was at most 100 nM.

Cc1ncc(-c2ccc(-c3cnc(N4CC5(CCN(C)CC5)C4)nn3)c(O)c2)o1 [Cpd 299, 2-[3-(7-methyl-2,7-diazaspiro[3.5]nonan-2-yl)-1,2,4-triazin-6-yl]-5-(2-methyl-1,3-oxazol-5-yl)phenol] was tested. Which IC50 did it give?
The IC50 was at most 100 nM.

How did the IC50 turn out when CC1(C)C[C@@H](Nc2ncc(-c3ccc(-c4cn[nH]c4)cc3O)nn2)[C@@H](F)C(C)(C)N1 [Cpd 323, 2-(3-{[(3R,4R)-3-fluoro-2,2,6,6-tetramethylpiperidin-4-yl]amino}-1,2,4-triazin-6-yl)-5-(1H-pyrazol-4-yl)phenol] was run?
The IC50 was at most 100 nM.

Which IC50 does the source give for CN1CC[C@H](Oc2ncc(-c3ccc(-c4cn[nH]c4)cc3O)nn2)C1 [Cpd 309, 2-(3-{[(3S)-1-methylpyrrolidin-3-yl]oxy}-1,2,4-triazin-6-yl)-5-(1H-pyrazol-4-yl)phenol] here?
Its IC50 is over 500 nM.

For CN(c1ncc(-c2ccc(-c3cn[nH]c3)cc2O)nn1)C1CCNCC1 [Cpd 19, 2-{3-[methyl(piperidin-4-yl)amino]-1,2,4-triazin-6-yl}-5-(1H-pyrazol-4-yl)phenol], which IC50 is on record?
Its IC50 is at most 100 nM.

Which IC50 does the source give for CN(c1ncc(-c2ccc(-c3cn[nH]c3)cc2O)nn1)C1CC(C)(C)NC(C)(C)C1 [Cpd 15, 2-{3-[methyl(2,2,6,6-tetramethylpiperidin-4-yl)amino]-1,2,4-triazin-6-yl}-5-(1H-pyrazol-4-yl)phenol] here?
Its IC50 is at most 100 nM.
